Experimental data: patent US12343335B2, “Pharmaceutical composition for treating multiple sclerosis on basis of AMPK inhibitory function and zinc homeostasis control function” (ZINCURE CORP., priority 2019, dated 2025)

How the values were obtained:
[1] = tested on: mouse cortical neuron culture; experiment: Intrinsic toxicity in cortical neuron culture, LDH cytotoxicity; assay type: cell-based; conditions: 40 μM; for intrinsic toxicity in words: 48 hours of drug treatment
Procedure: (§1) The mouse cortical neurons used in the present invention were extracted from the brain of a mouse embryo, and cultured in Dulbecco's modified Eagle's medium (DMEM, Gibco, Grand Island, NY, US) supplemented with 5% fetal bovine serum (FBS) and 5% horse serum (HS) under the condition of 95% humidity, 5% CO2 and 37° C. For activation and differentiation of the cells, the cells were grown to a density of 2×10^4 cells in a 24-well tissue culture plate and cultured in MEM medium without FBS and HS before treatment with zinc and compounds.
Specifically, 40 μM of each of the drugs was treated in a mouse cortical neuron culture, and LDH cytotoxicity was observed after 24 or 48 hours.

mouse cortical neurons [2] = experiment: Excitotoxicity by NMDA in cortical neurons; assay type: cell-based; conditions: NMDA 50 μM for 3 hours
Procedure: as §1
The present inventors investigated the inhibitory effect against excitotoxicity of the eight drugs and 1H10 of the above examples. Specifically, excitotoxicity was induced by treatment with NMDA (N-methyl-D-aspartate, 50 μM) in mouse cortical neurons for 3 hours.

mouse cortical neurons [3] = experiment: Apoptosis by etoposide (ETPS) in cortical neurons, LDH cytotoxicity; assay type: cell-based; conditions: etoposide 10 μM for 20 hours, compound 20 μM
Procedure: as §1
The present inventors investigated the inhibitory effect against neuronal cell death of the eight drugs and 1H10 of the above examples. Specifically, neurotoxicity due to apoptosis was induced by treatment with etoposide (ETPS, 10 μM) in mouse cortical neurons for 20 hours. Then, the selected 8 drugs and 1H10 were treated (20 μM) and LDH cytotoxicity was observed.

mouse cortical neurons [4] = experiment: Oxidative stress by H2O2 in cortical neurons, LDH analysis; assay type: cell-based; conditions: H2O2 100 μM about 4 hours, compound 20 μM
Procedure: as §1
(§2) The present inventors investigated the inhibitory effect against oxidative stress in addition to zinc toxicity for the eight drugs and 1H10 of the above examples. Specifically, oxidative damage induced neurotoxicity by treating mouse cortical neurons with H2O2 (100 μM) and FeCl2 (100 μM) for about 4 hours and 20 hours, respectively, and treatment with the 8 selected drugs and 1H10 (20 μM). Thereafter, cytotoxicity was observed through LDH (Lactate Dehydrogenase) analysis.

[5] = tested on: cortical neurons of the cultured mice; experiment: Zinc toxicity in cortical neurons, cell viability assay (Cell Counting Kit-8); assay type: cell-based, mouse; conditions: ZnCl2 400 μM for 10 minutes, compound 20 μM
Procedure: as §1
According to an embodiment of the present invention, based on the structural similarity of 1H10 of the present invention, 25 similar compounds having a similar structure were purchased from a compound library manufacturer (InterBioScreen, Russia; Akos, Germany). Then, in order to induce zinc toxicity in the cortical neurons of the cultured mice, ZnCl2 (400 μM) was treated for 10 minutes, and after 12.5 hours, the selected 25 compounds and the previously selected drug 1H10 were treated (20 μM) and it was determined whether cell death was inhibited through cell viability assay (Cell Counting Kit-8, Dojindo).

mouse cortical neurons [6] = experiment: Oxidative damage by iron (FeCl2) in cortical neurons, LDH analysis; assay type: cell-based; conditions: FeCl2 100 μM about 20 hours, compound 20 μM
Procedure: as §1, §2

[7] = Zinc chelation in a test tube with FluoZin-3; assay type: binding; conditions: 1 μM zinc, 5 μM FluoZin-3, compared with 1H10
Procedure: The present inventors treated FluoZin-3, a substance illuminate fluorescence if it bind to free zinc to cultivated neurons in order to verify the possibility of zinc chelation according to the treatment of 1H10 {(Z)-5-((1H-indol-3-yl)methylene)-2-((3-hydroxyphenyl)amino)thiazol-4(5H)-one} according to an embodiment of the present invention, and then measured cytosolic zinc level in the neurons for 60 min after exposing zinc (300 μM) for 15 minutes and removing the zinc. In addition, 20 μM zinc (ZnCl2) and NewPort Green DCF fluorophore, which emits fluorescence when it bind to zinc, were added to the test tube, and 1H10 of the present invention was treated at various concentrations. Clioquinol, a zinc chelator, and calcium ionophore Phosphorus ionomycin was used as controls.
In addition, after reacting various concentrations of (0, 0.5, 1, 2, 5, 10, 20, 40 μM) 1H10 or clioquinol with 1 μM zinc and 5 μM fluorescent labeled drug for free zinc (FluoZin-3) in a test tube and fluorescence values were measured. […] 1H10 of the present invention binds zinc even at a lower concentration than clioquinol, but at a high concentration, zinc binding strength is considered to be lower than that of clioquinol (FIG. 5B).

EAE = conditions: zinc chelator administrated to EAE animals; cited from earlier work

Structure (SMILES) | intrinsic toxicity in words [1] | inhibition of excitotoxicity caused by NMDA (mouse cortical neurons [2]) | inhibitory effect against ETPS toxicity (LDH) (mouse cortical neurons [3]) | inhibition of H2O2 toxicity (LDH) (mouse cortical neurons [4]) | neuroprotective effect against zinc toxicity (cell viability) [5] | intrinsic toxicity compared with 1H10 ([1]; 24 or 48 hours (time not specified)) | inhibition of oxidative damage caused by iron (LDH) (mouse cortical neurons [6]) | final FluoZin-3 fluorescence value [7] | T cell infiltration that cause encephalitis (EAE) | demyelination and microglia activity in EAE (EAE)
Cc1ccc(NC2=NC(=O)/C(=C/c3c[nH]c4ccccc34)S2)cc1C [4B01, (5Z)-2-[(3,4-Dimethylphenyl)amino]-5-(1H-indol-3-ylmethylene)-1,3-thiazol-4(5H)-one] | stronger intrinsic toxicity than 1H10 | significantly inhibited | significant inhibitory effect | significantly inhibit | neuroprotective effect | – | – | – | – | –
Cc1cccc(NC2=NC(=O)/C(=C/c3c[nH]c4ccccc34)S2)c1C [4B04, (5Z)-2-[(2,3-Dimethylphenyl)amino]-5-(1H-indol-3-ylmethylene)-1,3-thiazol-4(5H)-one] | – | – | – | significantly inhibit | neuroprotective effect | – | – | – | – | –
CCCCc1ccc(NC2=NC(=O)/C(=C/c3c[nH]c4ccccc34)S2)cc1 [4C01, (Z)-5-((1H-indol-3-yl)methylene)-2-((4-butylphenyl)amino)thiazol-4(5H)-one] | – | significantly inhibited | significant inhibitory effect | significantly inhibit | neuroprotective effect | insignificant difference from 1H10 | – | – | – | –
Cc1ccc(/N=C2\NC(=O)/C(=C/c3c(C)[nH]c4ccccc34)S2)cc1 [4C03, (2E,5Z)-5-((2-methyl-1H-indol-3-yl)methylene)-2-(p-tolylimino)thiazolidin-4-one] | – | significantly inhibited | – | significantly inhibit | neuroprotective effect | – | – | – | – | –
Cc1ccc(/N=C2/NC(=O)/C(=C\c3c(C)[nH]c4ccccc34)S2)cc1 [4C04, (2Z,5E)-5-((2-methyl-1H-indol-3-yl)methylene)-2-(p-tolylimino)thiazolidin-4-one] | – | significantly inhibited | – | significantly inhibit | neuroprotective effect | – | – | – | – | –
O=C1N=C(Nc2ccccc2C(=O)O)S/C1=C/c1c[nH]c2ccccc12 [4C06, (E)-2-((5-((1H-indol-3-yl)methylene)-4-oxo-4,5-dihydrothiazol-2-yl)amino)benzoic acid] | – | – | significant inhibitory effect | – | neuroprotective effect | – | – | – | – | –
O=C1N=C(Nc2ccc(O)c(C(=O)O)c2)S/C1=C\c1c[nH]c2ccccc12 [4C08, (Z)-5-((5-((1H-indol-3-yl)methylene)-4-oxo-4,5-dihydrothiazol-2-yl)amino)-2-hydroxy benzoic acid] | did not show intrinsic toxicity | significantly inhibited | significant inhibitory effect | – | neuroprotective effect | – | inhibited | – | – | –
Oc1c(I)cc(Cl)c2cccnc12 [clioquinol] | – | – | – | – | – | – | – | lower | inhibitored | reduced
